Literature values in patent US20070031367A1, “Composition and method for neck skin firming” (priority 2004, published 2007).

## COc1cc(CNC(=O)CCCC/C=C/C(C)C)ccc1O [Capsaicin, N-canillyl-8-methyl-6-(E)-noneamide]
fats, oils and alcohol
  Solubility in fats, oils and alcohol: very soluble
water
  Solubility in water: sparingly soluble
